Results: patent US20040204577A1, “Novel peptide-forming enzyme gene” (Ajinomoto Co., Inc., priority 2003, published 2004)
Where a SMILES comes first, the peptide text is derived from it.

Test system: SP-Sepharose HP fraction enzyme
Experiment: Production of L-alanyl-L-glutamine using enzyme fraction of Sphingobacterium sp.
Assay type: biochemical
Conditions: 10 μl fraction (about 27 U/ml) + 90 μl buffer with 111 mM L-alanine methyl ester hydrochloride, 222 mM L-glutamine; pH 9.0, 25° C., 120 minutes
Description: The following procedure after centrifugation was carried out either on ice or at 4° C. Sphingobacterium sp. strain FERM BP-8124 (Depositary institution: the independent administrative corporation, National Institute of Advanced Industrial Science and Technology, International Patent Organism Depositary, Address of depositary institution: Chuo Dai-6, 1-1 Higashi 1-Chome, Tsukuba-shi, Ibaraki-ken, Japan, International deposit date: Jul. 22, 2002) was cultured in the same manner as Example 21, and the microbial cells were collected by centrifugation (10,000 rpm, 15 minutes). After washing 2 g of microbial cells with 20 mM Tris-HCl buffer (pH 7.6), they were suspended in 8 ml of the same buffer and subjected to ultrasonic crushing treatment for 45 minutes at 195 W. This ultrasonic crushed suspension was then centrifuged (10,000 rpm, 30 minutes) to remove the crushed cell fragments and obtain a supernatant. This supernatant was dialyzed overnight against 20 mM Tris-HCl buffer (pH 7.6) followed by removal of the insoluble fraction by ultracentrifugation (50,000 rpm, 30 minutes) to obtain a soluble fraction in the form of the supernatant liquid. The resulting soluble fraction was applied to a Q-Sepharose HP column (manufactured by Amersham) pre-equilibrated with Tris-HCl buffer (pH 7.6), and the active fraction was collected from the non-adsorbed fraction. […]

L-alanyl-L-glutamine formed, enzyme-added lot: 73 mM
SMILES: C[C@H](N)C(=O)N[C@@H](CCC(N)=O)C(=O)O [L-Ala-L-Gln, L-alanyl-L-glutamine] (H-Ala-Gln-OH)
